Six compounds from patent EP0171977A1, “Phthalimide derivatives, compositions containing them and a process for preparing them” (SANKYO COMPANY LIMITED, priority 1984, dated 1986) can be followed below.

Each structure is given as a SMILES string. Like-named read-outs stand apart in the source and are kept apart here.

One assay deals with collateral blood vessels. Briefly: Selective vasodilative effect on collateral blood vessels (coronary vascular resistance, method of Winburg et al.). The assay is classed as in vivo. The note with it: anaesthetized dogs, test compound 30 ug/kg intravenously vs glyceryl trinitrate 3 µg/kg; for Glyceryl trinitrate ratio RL/RT: ratio of selectivity (RL/RT) of test compound to that of glyceryl trinitrate; for Glyceryl trinitrate ratio RL: ratio of vascular resistance (RL) of test compound to that of glyceryl trinitrate. Here is the method:
The test animals employed in this experiment were dogs. Each animal was anaesthetized with pentobarbital and the chest was opened to expose the heart, whilst respiration was maintained artificially.
Following the method of Winburg et al. [J. Pharmacol. Exp. Ther., 168, 70-95 (1969)], the vascular resistance (RL) between two points, one at a large coronary artery on the cardiac surface and the other at a small coronary artery, was calculated by dividing the blood pressure difference between these two points by the blood flow. The peripheral resistance of the coronary artery (RT) was determined and the value RL was divided by the value RT, to give the selectivity (RL/RT).
Each compound of the invention tested was administered intravenously at a dose of 30 ug/kg body weight immediately prior to the measurement of vascular resistance. The same experiment was carried out employing glyceryl trinitrate at a dose of 3 µg/kg body weight and the results are reported in the following Table 1 as the glyceryl trinitrate ratios, i.e. the ratio between the vascular resistance of the test compound and that of glyceryl trinitrate or the selectivity of the test compound and that of glyceryl trinitrate.

For assay [1], the system named is right atrium of a guinea pig heart. Briefly: Effect on heart beat: spontaneous contraction of excised right atrium. The note with it: for inhibition at 100 µg/mL: Concentration 1x10^-4 g/ml; for inhibition at 30 µg/mL: Concentration 3x10^-5 g/ml. On the procedure: The right atrium of a guinea pig heart was excised and placed in a bath containing Krebs - Henseleit solution maintained at 37°C, through which was bubbled a gas containing 95% oxygen and 5% carbon dioxide. […] The results, in terms of the percentage decrease (-) or increase (+) in the rate of heart beat, for the compounds of the invention and for glyceryl trinitrate are shown in Table 2.

[2] abbreviates: Cavia porcellus, Krebs - Henseleit solution, 37°C, read-out: percentage decrease (-) or increase (+) in the rate of heart beat.
Where [3] appears, read: Cavia porcellus, Concentration 1x10^-5 g/ml, Krebs - Henseleit solution, 37°C, read-out: percentage decrease (-) or increase (+) in the rate of heart beat.
[4] abbreviates: Cavia porcellus, read-out: percentage decrease (-) or increase (+) in the rate of heart beat.

As for `CCN(CC)CCOc1ccc2c(c1)C(=O)N(CCO[N+](=O)[O-])C2=O` [Compound No. 25, N-(2-nitrooxyethyl)-4-(2-N,N-diethylaminoethoxy)-phthalimide], in the assay with collateral blood vessels, the “Glyceryl trinitrate ratio RL/RT” value turned out to be 1.6 and the “Glyceryl trinitrate ratio RL” value was 1.6. For the same compound, in assay [1] (setting [2]), the inhibition at 100 µg/mL was 73% and the inhibition at 30 µg/mL worked out at 67%. In assay [1] (setting [3]), the inhibition at 10 µg/mL was 53%.
Take `CC(C)N(CCOc1ccc2c(c1)C(=O)N(CCO[N+](=O)[O-])C2=O)C(C)C` [Compound No. 27, N-(2-nitrooxyethyl)-4-(2-N,N-diisopropylamino-ethoxy)phthalimide]: in the assay with collateral blood vessels, the “Glyceryl trinitrate ratio RL/RT” value stood at 1.4 and the “Glyceryl trinitrate ratio RL” value is recorded as 1.8. Further, in assay [1] (setting [2]), the inhibition at 100 µg/mL is 71% and the inhibition at 30 µg/mL was 64%. Also, the inhibition at 10 µg/mL in assay [1] (setting [3]) came to 59%.
Taken in the same sequence, the figures for `CN(C)CCCOc1ccc2c(c1)C(=O)N(CCO[N+](=O)[O-])C2=O` [Compound No. 51, N-(2-nitrooxyethyl)-4-(3-N,N-dimethylamino-propoxy)phthalimide] were 1.4, 1.6, 64%, 58% and 31%.
For the compound `CC(COc1ccc2c(c1)C(=O)N(CCO[N+](=O)[O-])C2=O)CN(C)C` (centres unmarked) [Compound No. 54, N-(2-nitrooxyethyl)-4-(3-N,N-dimethylamino-2-methylpropoxy)phthalimide], in the assay with collateral blood vessels, the “Glyceryl trinitrate ratio RL/RT” value turned out to be 2.1 and the “Glyceryl trinitrate ratio RL” value is on record as 1.7. In addition, in assay [1] (setting [2]), the inhibition at 100 µg/mL was found to be 62% and the inhibition at 30 µg/mL was determined as 56%. Besides, in assay [1] (setting [3]), the inhibition at 10 µg/mL was 37%.
Taken in the same sequence, the figures for `O=C1c2ccc(OCCN3CCCCC3)cc2C(=O)N1CCO[N+](=O)[O-]` [Compound No. 59, N-(2-nitrooxyethyl)-4-(2-piperidinoethoxy)-phthalimide] were 1.6, 1.2, 74%, 61% and 32%.
`O=[N+]([O-])OCC(CO[N+](=O)[O-])O[N+](=O)[O-]` [Glyceryl trinitrate, reference compound]: in assay [1] (setting [4]), the inhibition at 1 µg/mL amounted to 0%, the inhibition at 3 µg/mL is -1% and the inhibition at 10 µg/mL was 0%. The “change in the heart beat” value in assay [1] (added at doses between 10^-6 and 10 ^5 g/ml) is listed as “very little or no change”.
